Key:
[1] = compound: C#Cc1cccc(Nc2ncnc3cc(OC)c(OCCCCCCC(=O)NO)cc23)c1 [CUDC-101] + Nc1nc2[nH]cc(CCc3ccc(C(=O)N[C@@H](CCC(=O)O)C(=O)O)cc3)c2c(=O)[nH]1 [Pemetrexed] (partner 0.2 µM); assay: relative viability (nuclei count vs DMSO), 5 days (fraction); higher = more cells survive
Outline: (§1)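 A single step with final 0.05% Triton X-100, 1% formaldehyde and 1 ug/ml Hoechst fixed the cells and stained nuclei 5 days after treatment. Lung cancer cell lines in 1536-well plates had been treated by pin tool the day after seeding with one drug alone or a fixed anchor-drug dose plus five library-drug doses (not always all listed) in √10 steps, and nuclei were counted on 4× images. Relative viability is the ratio of nuclei in treated wells to nuclei in vehicle wells, taken as the median of duplicate plates.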

[2] = compound: COc1cc(N2CCC(N3CCN(C)CC3)CC2)ccc1Nc1ncc(Cl)c(Nc2ccccc2S(=O)(=O)C(C)C)n1 [NVP-TAE684] + CC1(C)CCC(c2ccc(Cl)cc2)=C(CN2CCN(c3ccc(C(=O)NS(=O)(=O)c4ccc(N[C@H](CCN5CCOCC5)CSc5ccccc5)c(S(=O)(=O)C(F)(F)F)c4)cc3)CC2)C1 [Navitoclax] (partner 0.5 µM); assay: as above
Outline: as §1

Cell Line	relative viability ([1]; first compound 0.01 µM)	relative viability ([1]; first compound 0.03162 µM)	relative viability ([1]; first compound 0.1 µM)	relative viability ([1]; first compound 0.3162 µM)	relative viability ([1]; first compound 1 µM)	relative viability ([2]; first compound 0.2 µM)	relative viability ([2]; first compound 0.6325 µM)	relative viability ([2]; first compound 2 µM)
NCI-H441	0.248	0.261	0.263	0.274	0.228	0.472	0.583	0.319
LK-2	0.255	0.28	0.245	0.207	0.133	0.777		0.449
SW 1573	0.86	0.97	1.08	0.96	0.459	0.904	0.959	0.737
LU99A	0.205	0.197	0.179	0.18	0.176	0.802	0.769	0.362
NCI-H322M	0.636	0.604	0.585	0.569	0.453	1.21	1.3	1.2
COR-L23	0.184	0.196	0.2	0.186	0.175	1.12	0.943	0.544
NCI-H1563	0.78	0.758	0.844	0.773	0.512			
NCI-H1793	0.75	0.777	0.663	0.889	0.494	0.467	0.491	0.43
HARA	0.253	0.237		0.243	0.176	1.02		0.701
NCI-H1648	0.826	0.744	0.805	0.741	0.535			
LXF-289	0.881	0.888	0.873	0.904	0.805	0.966	0.966	0.803
201T	0.281	0.387	0.368	0.356	0.29	1.21	1.19	1.12
LCLC-103H	0.472	0.537	0.486	0.456	0.429			
NCI-H520	0.711	0.755	0.774	0.608	0.342	1.11	1.13	0.357
RERF-LC-KJ	0.476	0.493	0.438	0.42	0.357	1.14	1.04	0.67
A549						1.38		0.263
NCI-H1975	0.27	0.283	0.296	0.277	0.313	1.06		0.513
PC-3 [JPC-3]	1.12	1.06	0.842	0.439	0.393	0.862	0.822	0.658
EPLC-272H	0.345	0.316	0.428	0.387	0.235	1.02		1.48
Calu-6						0.776	0.694	0.269
